In US20020192827A1, “Novel vector for C. glabrata and the use thereof” (priority 2000, published 2002):

System: C. glabrata strain ATCC 200989
Assay: geneticin resistance growth test on -Ura medium, uninduced and copper-induced
Type: cell-based, Candida glabrata
Protocol: C. C. glabrata strain with expression plasmid pFPG1 lacking or carrying the wildtype neomycin/kanamycin resistance gene (which confers resistance to the antibiotic geneticin), on -Ura media supplemented with 1 mg/ml geneticin.
C. C. glabrata strain with expression plasmid pFPG2 lacking or carrying the wildtype neomycin/kanamycin resistance gene (which confers resistance to the antibiotic geneticin), on -Ura media supplemented with 1 mg/ml geneticin.
The neomycin/kanamycin resistance gene from Tn903 confers resistance of C. glabrata to the antibiotic G418, geneticin (Cormack and Falkow, 1999). The pFPG1-NEO plasmid and empty pFPG1 as a control were transformed into C. glabrata strain ATCC 200989 and tested for geneticin resistance under uninduced and induced conditions (FIG. 3C). […] In this case, induction of the MT-1 promoter in pFPG1 was not absolutely necessary to obtain adequate expression of the NEO gene.
The NEO pFPG2 plasmid and empty pFPG2 as a control were transformed into C. glabrata strain ATCC 200989 and tested for geneticin resistance on -Ura medium under uninduced and induced conditions (FIG. 6).

## CN[C@@H]1[C@@H](O)[C@@H](O[C@@H]2[C@@H](O)[C@H](O[C@H]3O[C@H]([C@@H](C)O)[C@@H](O)[C@H](O)[C@H]3N)[C@@H](N)C[C@H]2N)OC[C@]1(C)O [geneticin]
Strain ATCC 200989 with empty pFPG1 plasmid
  geneticin concentration required to suppress growth: about 1 mg/ml
Strain ATCC 200989 with empty pFPG2 plasmid, -Ura medium
  geneticin concentration required to suppress growth: about 1 mg/ml
